6 compounds from ChEMBL document CHEMBL5143586, “Advances in the Development of Nonpeptide Small Molecules Targeting Ghrelin Receptor” (J Med Chem, 2022) can be followed below.

In assay [1] the target is T1, Growth hormone secretagogue receptor type 1 (Homo sapiens, UniProt Q92847). In words: Antagonist activity at GHS-R1a (unknown origin) relative to control. It counts as functional.
Assay [2] concerns the target T1, Growth hormone secretagogue receptor type 1. In words: Inverse agonist activity at GHS-R1a (unknown origin) relative to control. It counts as functional.
Assay [3] shares this target. Description: Binding affinity at GHS-R1a (unknown origin) assessed as inhibition constant.
A short description of assay [4]: Binding affinity at mouse pancreas GHS-R1a assessed as inhibition constant. In kind it is tissue-based.

The structures appear in SMILES notation.

T1 sequence (Q92847 whole entry): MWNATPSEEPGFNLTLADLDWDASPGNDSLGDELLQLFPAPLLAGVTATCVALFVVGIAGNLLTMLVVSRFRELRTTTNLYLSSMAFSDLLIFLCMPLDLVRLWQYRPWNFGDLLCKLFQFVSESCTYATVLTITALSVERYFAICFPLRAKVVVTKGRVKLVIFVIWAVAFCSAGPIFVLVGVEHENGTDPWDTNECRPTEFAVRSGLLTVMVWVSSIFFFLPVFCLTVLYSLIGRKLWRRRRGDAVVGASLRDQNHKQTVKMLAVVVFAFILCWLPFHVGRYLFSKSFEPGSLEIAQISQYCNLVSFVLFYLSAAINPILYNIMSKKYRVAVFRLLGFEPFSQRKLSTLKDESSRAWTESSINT

For the compound `COc1ccc(Cn2c([C@@H](Cc3c[nH]c4ccccc34)NC(=O)CO)nnc2[C@@H](Cc2c[nH]c3ccccc23)NC(=O)[C@H](CC(C)C)NC(=O)[C@H](CC(C)C)NC(C)=O)cc1`, the Emax in assay [1] stood at 0%.
Usually Ki stands for a dissociation constant, usually derived from enzyme kinetics or from competition with a known ligand. As for `COc1ccc(Cn2c([C@@H](Cc3c[nH]c4ccccc34)NC(=O)[C@H](CC(C)C)NC(=O)[C@H](CC(C)C)NC(C)=O)nnc2[C@@H](Cc2c[nH]c3ccccc23)NC(=O)[C@@H](N)CCCCN)cc1`, in assay [2], the Emax was -37%. Besides, the Ki in assay [3] stood at 3 nM.
For the compound `CC(C)C[C@H](NC(=O)[C@H](CC(C)C)NC(=O)[C@@H](Cc1c[nH]c2ccccc12)NC(=O)[C@H](Cc1ccccc1)NC(=O)[C@@H](Cc1c[nH]c2ccccc12)NC(=O)[C@@H](N)CCCCN)C(N)=O`, the Emax in assay [2] is -55%.
`Cc1ccccc1-c1nc2ccc(-c3ccc(Cl)cc3)cc2c(=O)n1C[C@@H]1CCCN(CCO[11CH3])C1`: in assay [4], the Ki turned out to be 4 nM.
Turning to `Cc1ccccc1-c1nc2ccc(-c3ccc(Cl)cc3)cc2c(=O)n1C[C@@H]1CCCN(CC[18F])C1`, in assay [4], the Ki worked out at 16 nM.
For `C[C@H]1CN(C(=O)c2ccc(-c3ccc(O[11CH3])cc3)cc2)CCN1C(=O)c1ccc2cc[nH]c2c1`, in assay [4], the Ki amounted to 7 nM.
